What was measured:
Assay in all cases: DiscoveRx scanMAX kinase profiling
Format in all cases: binding
[1] = biological target: T1, AKT3 (Homo sapiens, UniProt Q9Y243); conditions: read-out: Direct inhibitory activity on AKT3 (KINOMEscan)
T1 construct: purchased DiscoverX (San Diego, Calif.) scanMAX
Method: (§1) Biochemical assays: Recombinant human EIF2AK3 (PERK) catalytic domain (amino acids 536-1116; Cat # PV5107), GFP-eIF2a (Cat # PV4809) substrate, and Terbium-labelled phospho-eIF2a antibody (Cat # PR8956B) were purchased from Invitrogen (Carlsbad, Calif.). HIS-SUMO-GCN2 catalytic domain (amino acids 584-1019) was expressed and purified from E. coli. TR-FRET kinase assays were performed in the absence or presence of inhibitors in a reaction buffer consisting of 50 mM HEPES, pH 7.5, 10 mMMgCl2, 1.0 mM EGTA, and 0.01% Brij-35, and 100-200 nM GFP-eIF2a substrate. […] Following the addition of test compound, the reaction was initiated by addition of enzyme and incubated at room temperature for 45 minutes. The reaction was stopped by addition of EDTA to a final concentration of 10 mM and Terbium-labelled phospho-eIF2α antibody was added at a final concentration of 2 nM and incubated for 90 minutes. The resulting fluorescence was monitored in an EnVison® Multilabel reader (PerkinElmer, Waltham, Mass.). TR-FRET ratios and the resulting IC50 values were determined from the fitted inhibition curves. Biochemical specificity profiling was performed at Cerep (Redmond, Wash.) and DiscoverX (San Diego, Calif.).

[2] = biological target: T2, PIK3CB (Homo sapiens, UniProt P42338); conditions: read-out: Direct inhibitory activity on PIK3CB (KINOMEscan)
T2 construct: purchased DiscoverX (San Diego, Calif.)
Method: as §1

[3] = biological target: T3, EIF2AK1 (Homo sapiens, UniProt Q9BQI3); conditions: read-out: Inhibition of EIF2AK1 (KINOMEscan)
T3 construct: purchased DiscoverX (San Diego, Calif.) scanMAX
Method: as §1

[4] = biological target: T4, AKT1 (Homo sapiens, UniProt P31749); conditions: read-out: Direct inhibitory activity on AKT1 (KINOMEscan)
T4 construct: purchased DiscoverX (San Diego, Calif.) scanMAX
Method: as §1

[5] = biological target: T5, ERK4 (MAPK4) (Homo sapiens, UniProt P31152); conditions: read-out: Direct inhibitory activity on ERK4 (KINOMEscan)
T5 construct: purchased DiscoverX (San Diego, Calif.) scanMAX
Method: as §1

[6] = biological target: T6, ERBB4 (Homo sapiens, UniProt Q15303); conditions: read-out: Direct inhibitory activity on ERBB4 (KINOMEscan)
T6 construct: purchased DiscoverX (San Diego, Calif.) scanMAX
T6 sequence (Q15303 26-1308): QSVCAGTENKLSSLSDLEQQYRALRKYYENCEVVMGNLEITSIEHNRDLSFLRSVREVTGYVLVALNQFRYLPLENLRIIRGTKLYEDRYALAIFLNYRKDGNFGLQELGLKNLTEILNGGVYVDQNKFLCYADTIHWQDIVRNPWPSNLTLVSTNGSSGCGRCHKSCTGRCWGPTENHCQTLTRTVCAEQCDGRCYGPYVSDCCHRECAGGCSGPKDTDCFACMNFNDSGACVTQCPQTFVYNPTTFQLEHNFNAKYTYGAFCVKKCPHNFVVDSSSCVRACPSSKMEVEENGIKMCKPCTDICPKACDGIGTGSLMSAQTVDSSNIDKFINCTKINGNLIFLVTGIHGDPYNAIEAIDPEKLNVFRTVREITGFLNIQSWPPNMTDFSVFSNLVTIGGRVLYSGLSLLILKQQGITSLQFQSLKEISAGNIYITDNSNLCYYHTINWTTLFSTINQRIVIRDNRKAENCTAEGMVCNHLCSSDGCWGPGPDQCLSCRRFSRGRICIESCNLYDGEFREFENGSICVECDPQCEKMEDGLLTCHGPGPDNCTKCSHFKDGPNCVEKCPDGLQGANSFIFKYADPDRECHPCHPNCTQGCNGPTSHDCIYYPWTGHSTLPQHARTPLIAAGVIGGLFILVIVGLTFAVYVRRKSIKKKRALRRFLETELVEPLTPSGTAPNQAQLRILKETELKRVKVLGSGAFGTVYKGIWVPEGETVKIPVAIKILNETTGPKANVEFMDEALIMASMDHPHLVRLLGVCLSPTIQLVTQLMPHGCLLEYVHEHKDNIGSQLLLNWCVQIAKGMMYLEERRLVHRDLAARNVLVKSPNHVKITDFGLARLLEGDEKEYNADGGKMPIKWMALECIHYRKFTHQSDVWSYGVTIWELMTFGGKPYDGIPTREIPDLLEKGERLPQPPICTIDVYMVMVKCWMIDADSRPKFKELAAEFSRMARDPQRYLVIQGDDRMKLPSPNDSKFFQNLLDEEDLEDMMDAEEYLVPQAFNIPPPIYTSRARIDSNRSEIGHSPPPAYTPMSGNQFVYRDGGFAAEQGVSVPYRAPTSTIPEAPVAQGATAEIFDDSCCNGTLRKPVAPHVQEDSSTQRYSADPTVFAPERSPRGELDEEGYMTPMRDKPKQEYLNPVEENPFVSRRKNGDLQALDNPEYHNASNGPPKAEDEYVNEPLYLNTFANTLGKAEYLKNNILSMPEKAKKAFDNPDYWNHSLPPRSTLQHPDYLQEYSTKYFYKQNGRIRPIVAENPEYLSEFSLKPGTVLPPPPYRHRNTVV
Method: as §1

[7] = biological target: T7, PIK3CG (Homo sapiens, UniProt P48736); conditions: read-out: Direct inhibitory activity on PIK3CG (KINOMEscan)
T7 construct: purchased DiscoverX (San Diego, Calif.)
T7 sequence (P48736 whole entry): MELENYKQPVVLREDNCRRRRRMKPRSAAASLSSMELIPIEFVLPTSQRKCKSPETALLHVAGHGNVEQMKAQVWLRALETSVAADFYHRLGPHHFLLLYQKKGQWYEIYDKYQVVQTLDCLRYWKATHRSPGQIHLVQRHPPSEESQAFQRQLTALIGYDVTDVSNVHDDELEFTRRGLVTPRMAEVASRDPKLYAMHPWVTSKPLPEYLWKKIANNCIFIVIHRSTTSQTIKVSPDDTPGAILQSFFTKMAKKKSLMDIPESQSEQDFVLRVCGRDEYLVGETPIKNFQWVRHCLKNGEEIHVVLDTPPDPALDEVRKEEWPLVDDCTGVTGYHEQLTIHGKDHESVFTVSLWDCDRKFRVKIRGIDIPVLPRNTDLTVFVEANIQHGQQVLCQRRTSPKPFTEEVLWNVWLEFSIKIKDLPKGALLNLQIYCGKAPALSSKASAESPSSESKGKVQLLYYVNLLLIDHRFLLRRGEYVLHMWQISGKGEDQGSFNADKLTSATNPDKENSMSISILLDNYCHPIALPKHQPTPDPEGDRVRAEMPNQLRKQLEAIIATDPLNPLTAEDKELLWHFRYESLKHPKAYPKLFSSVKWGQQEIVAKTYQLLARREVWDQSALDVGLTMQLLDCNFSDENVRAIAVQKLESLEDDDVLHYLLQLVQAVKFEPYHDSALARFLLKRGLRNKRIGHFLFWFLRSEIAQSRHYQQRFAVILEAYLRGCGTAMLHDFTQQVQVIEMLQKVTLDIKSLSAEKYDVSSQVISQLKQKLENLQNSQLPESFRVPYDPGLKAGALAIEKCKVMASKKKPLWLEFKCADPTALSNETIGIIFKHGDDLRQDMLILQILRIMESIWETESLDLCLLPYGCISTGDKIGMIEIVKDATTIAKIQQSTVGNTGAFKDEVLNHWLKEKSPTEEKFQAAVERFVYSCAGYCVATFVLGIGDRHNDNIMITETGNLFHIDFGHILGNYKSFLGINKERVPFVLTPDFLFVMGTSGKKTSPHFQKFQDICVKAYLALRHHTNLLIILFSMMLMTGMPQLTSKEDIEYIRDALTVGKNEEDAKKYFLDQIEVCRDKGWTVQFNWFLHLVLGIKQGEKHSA
Method: as §1

[8] = biological target: T8, PIK3CA (Homo sapiens, UniProt P42336); conditions: read-out: Direct inhibitory activity on PIK3CA (KINOMEscan)
T8 construct: purchased DiscoverX (San Diego, Calif.)
Method: as §1

[9] = biological target: T9, SRC (Homo sapiens, UniProt P12931); conditions: read-out: Direct inhibitory activity on SRC (KINOMEscan)
T9 construct: purchased DiscoverX (San Diego, Calif.) scanMAX
T9 sequence (P12931 whole entry): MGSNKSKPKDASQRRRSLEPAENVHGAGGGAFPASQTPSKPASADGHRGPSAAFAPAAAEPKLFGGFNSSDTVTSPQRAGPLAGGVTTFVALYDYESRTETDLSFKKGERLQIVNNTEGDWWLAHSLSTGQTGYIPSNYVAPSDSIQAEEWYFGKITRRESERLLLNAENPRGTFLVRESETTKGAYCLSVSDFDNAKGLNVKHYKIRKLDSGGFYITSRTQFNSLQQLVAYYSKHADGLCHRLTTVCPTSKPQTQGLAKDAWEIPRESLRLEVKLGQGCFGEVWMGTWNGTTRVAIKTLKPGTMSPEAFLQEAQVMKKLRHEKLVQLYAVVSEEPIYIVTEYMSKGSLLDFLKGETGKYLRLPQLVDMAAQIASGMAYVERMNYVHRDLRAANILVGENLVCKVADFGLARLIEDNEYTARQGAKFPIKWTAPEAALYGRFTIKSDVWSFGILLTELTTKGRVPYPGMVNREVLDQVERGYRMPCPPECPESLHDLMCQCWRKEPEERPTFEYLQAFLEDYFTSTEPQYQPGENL
Method: as §1

[10] = biological target: T10, ERK8 (MAPK15) (Homo sapiens, UniProt Q8TD08); conditions: read-out: Direct inhibitory activity on ERK8 (KINOMEscan)
T10 construct: purchased DiscoverX (San Diego, Calif.) scanMAX
T10 sequence (Q8TD08 1-544): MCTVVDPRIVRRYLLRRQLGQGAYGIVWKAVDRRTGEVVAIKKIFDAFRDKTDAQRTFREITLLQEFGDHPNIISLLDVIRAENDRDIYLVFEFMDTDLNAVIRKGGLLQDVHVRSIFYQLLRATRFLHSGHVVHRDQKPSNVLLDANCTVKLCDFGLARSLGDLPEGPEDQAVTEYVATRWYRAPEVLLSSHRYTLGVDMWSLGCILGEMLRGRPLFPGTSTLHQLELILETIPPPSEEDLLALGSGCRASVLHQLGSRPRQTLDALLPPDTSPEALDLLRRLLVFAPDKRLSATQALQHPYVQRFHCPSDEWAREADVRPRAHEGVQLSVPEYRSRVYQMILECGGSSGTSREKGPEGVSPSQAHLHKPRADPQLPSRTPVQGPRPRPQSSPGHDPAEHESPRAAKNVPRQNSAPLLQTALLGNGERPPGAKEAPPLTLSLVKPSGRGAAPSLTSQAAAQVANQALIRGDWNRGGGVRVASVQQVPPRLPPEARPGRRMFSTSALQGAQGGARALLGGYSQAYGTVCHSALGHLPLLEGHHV
Method: as §1

[11] = biological target: T11, ERK5 (MAPK7) (Homo sapiens, UniProt Q13164); conditions: read-out: Direct inhibitory activity on ERK5 (KINOMEscan)
T11 construct: purchased DiscoverX (San Diego, Calif.) scanMAX
T11 sequence (Q13164 whole entry): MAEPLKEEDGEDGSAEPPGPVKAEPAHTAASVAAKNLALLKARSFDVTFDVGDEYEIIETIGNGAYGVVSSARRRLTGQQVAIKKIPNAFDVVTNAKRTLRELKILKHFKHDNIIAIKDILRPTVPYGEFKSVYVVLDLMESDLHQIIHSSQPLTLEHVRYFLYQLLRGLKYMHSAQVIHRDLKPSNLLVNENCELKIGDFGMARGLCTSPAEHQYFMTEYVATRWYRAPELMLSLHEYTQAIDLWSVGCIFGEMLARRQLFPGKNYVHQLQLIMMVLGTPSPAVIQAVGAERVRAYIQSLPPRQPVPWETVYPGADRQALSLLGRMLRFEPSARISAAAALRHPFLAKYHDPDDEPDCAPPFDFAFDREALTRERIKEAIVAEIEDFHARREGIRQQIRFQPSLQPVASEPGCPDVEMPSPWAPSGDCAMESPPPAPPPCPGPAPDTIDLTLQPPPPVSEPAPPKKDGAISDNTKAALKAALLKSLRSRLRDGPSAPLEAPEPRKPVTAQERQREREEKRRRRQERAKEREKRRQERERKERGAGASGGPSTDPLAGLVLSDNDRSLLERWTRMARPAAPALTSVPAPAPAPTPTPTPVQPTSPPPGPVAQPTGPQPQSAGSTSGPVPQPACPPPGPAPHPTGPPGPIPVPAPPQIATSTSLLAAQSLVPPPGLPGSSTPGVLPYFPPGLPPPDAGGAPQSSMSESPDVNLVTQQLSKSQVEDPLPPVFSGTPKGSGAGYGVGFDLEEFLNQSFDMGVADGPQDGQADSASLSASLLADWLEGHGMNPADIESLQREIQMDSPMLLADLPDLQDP
Method: as §1

[12] = biological target: T12, EGFR (Homo sapiens, UniProt P00533); conditions: read-out: Direct inhibitory activity on EGFR (KINOMEscan)
T12 construct: purchased DiscoverX (San Diego, Calif.) scanMAX
T12 sequence (P00533 25-1210): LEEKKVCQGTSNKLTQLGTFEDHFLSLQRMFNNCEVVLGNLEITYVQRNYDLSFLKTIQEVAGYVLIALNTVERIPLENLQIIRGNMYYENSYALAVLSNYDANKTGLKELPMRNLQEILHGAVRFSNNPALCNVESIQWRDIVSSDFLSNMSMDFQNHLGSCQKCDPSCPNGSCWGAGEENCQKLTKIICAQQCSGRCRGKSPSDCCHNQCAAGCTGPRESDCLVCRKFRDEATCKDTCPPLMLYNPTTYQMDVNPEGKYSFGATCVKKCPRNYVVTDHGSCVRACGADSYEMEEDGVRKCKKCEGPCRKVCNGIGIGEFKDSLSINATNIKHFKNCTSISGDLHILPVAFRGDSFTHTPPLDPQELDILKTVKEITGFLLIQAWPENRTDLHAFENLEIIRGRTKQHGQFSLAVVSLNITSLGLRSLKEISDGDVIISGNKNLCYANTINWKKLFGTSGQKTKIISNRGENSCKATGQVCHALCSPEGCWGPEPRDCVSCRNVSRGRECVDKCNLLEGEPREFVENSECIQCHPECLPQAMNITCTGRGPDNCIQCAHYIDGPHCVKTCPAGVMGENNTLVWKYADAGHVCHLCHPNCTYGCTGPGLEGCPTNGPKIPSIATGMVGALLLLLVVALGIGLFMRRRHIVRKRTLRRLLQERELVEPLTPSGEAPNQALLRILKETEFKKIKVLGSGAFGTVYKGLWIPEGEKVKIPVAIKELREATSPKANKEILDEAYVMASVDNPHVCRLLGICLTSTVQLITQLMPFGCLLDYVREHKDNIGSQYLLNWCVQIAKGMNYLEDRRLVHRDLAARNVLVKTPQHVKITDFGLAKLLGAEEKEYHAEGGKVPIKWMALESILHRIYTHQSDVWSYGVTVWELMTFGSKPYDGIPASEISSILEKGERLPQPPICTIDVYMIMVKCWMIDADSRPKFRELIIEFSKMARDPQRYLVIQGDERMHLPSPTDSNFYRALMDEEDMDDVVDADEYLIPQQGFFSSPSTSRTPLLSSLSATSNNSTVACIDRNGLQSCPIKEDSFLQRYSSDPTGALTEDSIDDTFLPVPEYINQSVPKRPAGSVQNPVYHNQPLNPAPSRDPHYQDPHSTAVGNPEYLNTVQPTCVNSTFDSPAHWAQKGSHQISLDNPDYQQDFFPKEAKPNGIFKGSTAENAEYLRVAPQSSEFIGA
Method: as §1

[13] = biological target: T13, S6K1 (RPS6KB1) (Homo sapiens, UniProt P23443); conditions: read-out: Direct inhibitory activity on S6K1 (KINOMEscan)
T13 construct: purchased DiscoverX (San Diego, Calif.) scanMAX
Method: as §1

[14] = biological target: T14, PIK3C2B (Homo sapiens, UniProt O00750); conditions: read-out: Direct inhibitory activity on PIK3C2B (KINOMEscan)
T14 construct: purchased DiscoverX (San Diego, Calif.)
Method: as §1

SMILES: Cc1cccc(CC(=O)N2CCc3c2ccc(-c2cn(C)c4ncnc(N)c24)c3F)n1 [GSK2656157, reference compound]
- inhibition at 0.2 µM [1]: 24%
- inhibition at 2 µM [1]: 7%
- inhibition at 20 µM [1]: 0%
- inhibition at 0.2 µM [2]: 0%
- inhibition at 2 µM [2]: 0%
- inhibition at 20 µM [2]: 0%
- inhibition at 0.2 µM [3]: 8%
- inhibition at 2 µM [3]: 77%
- inhibition at 20 µM [3]: 95%
- inhibition at 0.2 µM [4]: 14%
- inhibition at 2 µM [4]: 32%
- inhibition at 20 µM [4]: 0%
- inhibition at 0.2 µM [5]: 0%
- inhibition at 2 µM [5]: 35%
- inhibition at 20 µM [5]: 0%
- inhibition at 0.2 µM [6]: 0%
- inhibition at 2 µM [6]: 0%
- inhibition at 20 µM [6]: 0%
- inhibition at 0.2 µM [7]: 36%
- inhibition at 2 µM [7]: 47%
- inhibition at 20 µM [7]: 50%
- inhibition at 0.2 µM [8]: 0%
- inhibition at 2 µM [8]: 8%
- inhibition at 20 µM [8]: 0%
- inhibition at 0.2 µM [9]: 10%
- inhibition at 2 µM [9]: 45%
- inhibition at 20 µM [9]: 69%
- inhibition at 0.2 µM [10]: 0%
- inhibition at 2 µM [10]: 3%
- inhibition at 20 µM [10]: 6%
- inhibition at 0.2 µM [11]: 4%
- inhibition at 2 µM [11]: 23%
- inhibition at 20 µM [11]: 12%
- inhibition at 0.2 µM [12]: 18%
- inhibition at 2 µM [12]: 16%
- inhibition at 20 µM [12]: 50%
- inhibition at 0.2 µM [13]: 0%
- inhibition at 2 µM [13]: 30%
- inhibition at 20 µM [13]: 56%
- inhibition at 0.2 µM [14]: 0%
- inhibition at 2 µM [14]: 9%
- inhibition at 20 µM [14]: 22%

SMILES: Cc1cc(NC(=O)[C@H](O)c2cc(F)cc(F)c2)ccc1-c1cnc(N)c(C(=O)NC(C)C)c1 [LY4, 2-amino-5-[4-[[(2R)-2-(3,5-difluorophenyl)-2-hydroxy-acetyl]amino]-2-methyl-phenyl]-N-isopropyl-pyridine-3-carboxamide]
- inhibition at 0.2 µM [1]: 0%
- inhibition at 2 µM [1]: 0%
- inhibition at 20 µM [1]: 13%
- inhibition at 0.2 µM [2]: 0%
- inhibition at 2 µM [2]: 0%
- inhibition at 20 µM [2]: 12%
- inhibition at 0.2 µM [3]: 0%
- inhibition at 2 µM [3]: 0%
- inhibition at 20 µM [3]: 35%
- inhibition at 0.2 µM [4]: 0%
- inhibition at 2 µM [4]: 5%
- inhibition at 20 µM [4]: 0%
- inhibition at 0.2 µM [5]: 0%
- inhibition at 2 µM [5]: 0%
- inhibition at 20 µM [5]: 0%
- inhibition at 0.2 µM [6]: 0%
- inhibition at 2 µM [6]: 0%
- inhibition at 20 µM [6]: 4%
- inhibition at 0.2 µM [7]: 24%
- inhibition at 2 µM [7]: 0%
- inhibition at 20 µM [7]: 26%
- inhibition at 0.2 µM [8]: 9%
- inhibition at 2 µM [8]: 0%
- inhibition at 20 µM [8]: 8%
- inhibition at 0.2 µM [9]: 0%
- inhibition at 2 µM [9]: 1%
- inhibition at 20 µM [9]: 11%
- inhibition at 0.2 µM [10]: 0%
- inhibition at 2 µM [10]: 0%
- inhibition at 20 µM [10]: 0%
- inhibition at 0.2 µM [11]: 0%
- inhibition at 2 µM [11]: 0%
- inhibition at 20 µM [11]: 4%
- inhibition at 0.2 µM [12]: 30%
- inhibition at 2 µM [12]: 23%
- inhibition at 20 µM [12]: 16%
- inhibition at 0.2 µM [13]: 31%
- inhibition at 2 µM [13]: 0%
- inhibition at 20 µM [13]: 24%
- inhibition at 0.2 µM [14]: 40%
- inhibition at 2 µM [14]: 39%
- inhibition at 20 µM [14]: 94%

— patent publication US20210121527A1, “METHODS OF TREATING MINIMAL RESIDUAL CANCER” (ICAHN SCHOOL OF MEDICINE AT MOUNT SINAI, priority 2018, published 2021)
